SMILES strings stand for the structures. Active and inactive are the calls of the source.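 The calls were made as follows: active = IC50 under 100 times the reference toxin's IC50 in the same rat muscle cell viability test; inactive = the rest.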

The values below come from PubChem BioAssay AID651895 (Broad Institute, 2012).

The experiment concerns L-6 rat myoblast viability, Alamar blue, 72 h. Put plainly: host muscle cell viability loss – plate reader, dry powder, counter-screen for T. cruzi inhibitor project, dose response (AID 651895).

The term IC50 denotes the concentration needed to halve the response being measured. Regarding `C[C@@H]1CN([C@@H](C)CO)C(=O)c2cccc(NC(=O)c3ccncc3)c2O[C@H]1CN(C)Cc1ccc(Oc2ccccc2)cc1`, the IC50 was 14.8 µM (inactive).
